Data from ChEMBL document CHEMBL1141243, “Antioxidant and cytotoxic activities of xanthones from Cudrania tricuspidata” (Bioorg Med Chem Lett, 2005).
The source made the active and inactive calls. No cut-off for these calls is given here.

What was measured:
HL-60 [1] = test: Cytotoxic activity in HL60 by DNA fragmentation assay; assay type: functional, cell-based; settings: Homo sapiens
HL-60 [2] = test: Cytotoxicity against human cancer HL60 cell line by MTT assay; assay type: functional; settings: read-out: LD50 (the source's name)
A549 = test: Cytotoxicity against human cancer A549 cell line by MTT assay; assay type: functional; settings: read-out: LD50 (the source's name)
AGS = test: Cytotoxicity against human cancer AGS cell line by MTT assay; assay type: functional; settings: read-out: LD50 (the source's name)
[3] = test system: Radical scavenging activity; test: Hydroxyl radical scavenging activity of Cudriana tricuspidata extracts; assay type: functional
[4] = test system: Radical scavenging activity; test: DPPH radical scavenging activity of Cudriana tricuspidata extracts; assay type: functional, Maclura tricuspidata
SK-OV-3 = test: Cytotoxicity against human cancer SKOV3 cell line by MTT assay; assay type: functional; settings: read-out: LD50 (the source's name)
[5] = test system: Radical scavenging activity; test: Superoxide radical scavenging activity of Cudriana tricuspidata extracts; assay type: functional, Maclura tricuspidata
HT-29 = test: Cytotoxicity against human cancer HT29 cell line by MTT assay; assay type: functional; settings: read-out: LD50 (the source's name)

With `C=CC(C)(C)c1c(O)cc2oc3c(CC=C(C)C)c(O)c(O)cc3c(=O)c2c1O` [CUDRAXANTHONE L] the Activity (HL-60 [1]) was “Active”, the CC50 (HL-60 [2]) was 8.6 µM and the CC50 (A549) was 33.5 µM. For the same compound, the CC50 (AGS) was 3.9 µM, the IC50 [3] was 50.3 µM and the IC50 [4] was 13.7 µM. The CC50 (SK-OV-3) was 38 µM, the IC50 [5] was 23.6 µM and the CC50 (HT-29) was 11.4 µM.
For `C=CC(C)(C)c1c(O)cc(O)c2c(=O)c3c(CC=C(C)C)c(OC)c(O)cc3oc12` [CUDRAXANTHONE C], the Activity (HL-60 [1]) was “Active”, the CC50 (HL-60 [2]) was 40.8 µM and the CC50 (A549) was 61.7 µM. It also gave a CC50 (AGS) of 49.5 µM, an IC50 [3] of 24.3 µM and an IC50 [4] greater than 200 µM. The CC50 (SK-OV-3) was 73.5 µM, the IC50 [5] was 85.1 µM and the CC50 (HT-29) was 50.7 µM.
`C=CC(C)(C)c1c(O)c(CC=C(C)C)c2oc3cc(O)c(O)cc3c(=O)c2c1O` [MACLURAXANTHONE B] was tested, and the Activity (HL-60 [1]) was “Active”, the CC50 (HL-60 [2]) was 29.5 µM and the CC50 (A549) was 25.8 µM. It also gave a CC50 (AGS) of 15.2 µM, an IC50 [3] of 74.1 µM and an IC50 [4] of 15.4 µM. The CC50 (SK-OV-3) was 23.1 µM, the IC50 [5] was 47.8 µM and the CC50 (HT-29) was 28 µM.
With `C=CC(C)(C)c1c(O)cc(O)c2c(=O)c3cc(O)c4c(c3oc12)C=CC(C)(C)O4` the Activity (HL-60 [1]) was “Active”, the CC50 (HL-60 [2]) was 35.9 µM and the CC50 (A549) was 61.9 µM. The CC50 (AGS) was 44.7 µM, the IC50 [3] was 55.5 µM and the IC50 [4] was greater than 200 µM. The CC50 (SK-OV-3) was 70.4 µM, the IC50 [5] was 64.5 µM and the CC50 (HT-29) was 46.3 µM.
With `C=CC(C)(C)c1c(OC)cc(O)c2c(=O)c3ccc(O)c(O)c3oc12` [ISOCUDRANIAXANTHONE B] the Activity (HL-60 [1]) was “Active”, the CC50 (HL-60 [2]) was 45.2 µM and the CC50 (A549) was 57.8 µM. The CC50 (AGS) was 43.9 µM, the IC50 [3] was 101 µM and the IC50 [4] was 31.8 µM. The CC50 (SK-OV-3) was 71.3 µM, the IC50 [5] was 29.5 µM and the CC50 (HT-29) was 65 µM.
In the case of `COc1cccc2c1C(=O)c1c(O)c3c(c(O)c1C2=O)C[C@@](O)(C(=O)CO)C[C@@H]3O[C@H]1C[C@H](N)[C@H](O)[C@H](C)O1` [DOXORUBICIN], the CC50 (HL-60 [2]) is reported as 1.1 µM, the CC50 (A549) is reported as 1.3 µM and the CC50 (AGS) is reported as 1.2 µM. It also gave a CC50 (SK-OV-3) of 14.2 µM and a CC50 (HT-29) of 1.8 µM.
With `CC(C)=CCc1c(O)c(O)cc2c(=O)c3c(O)c4c(cc3oc12)OC(C)C4(C)C` (stereo not given) [CUDRAXANTHONE M] the Activity (HL-60 [1]) was “Active”, the CC50 (HL-60 [2]) was 8.2 µM and the CC50 (A549) was 11.8 µM. It also gave a CC50 (AGS) of 4.1 µM, an IC50 [3] of 42.6 µM and an IC50 [4] of 10.4 µM. It also gave a CC50 (SK-OV-3) of 14.6 µM, an IC50 [5] of 26 µM and a CC50 (HT-29) of 12.1 µM.
`C=CC(C)(C)c1c(O)cc(O)c2c(=O)c3c(CC=C(C)C)c(O)c(O)cc3oc12` [CUDRATRICUSXANTHONE A] was tested, and the Activity (HL-60 [1]) was “Active”, the CC50 (HL-60 [2]) was 32.8 µM and the CC50 (A549) was 45.8 µM. The CC50 (AGS) was 32.8 µM, the IC50 [3] was 21.2 µM and the IC50 [4] was 21.3 µM. It also gave a CC50 (SK-OV-3) of 43.2 µM, an IC50 [5] of 51 µM and a CC50 (HT-29) of 41.4 µM.
`C=CC(C)(C)c1c(OC)cc(O)c2c(=O)c3c(CC=C(C)C)c(O)c(O)cc3oc12` [CUDRAXANTHONE D] was tested, and the Activity (HL-60 [1]) was “Active”, the CC50 (HL-60 [2]) was 6.2 µM and the CC50 (A549) was 16.3 µM. For the same compound, the CC50 (AGS) was 4.7 µM, the IC50 [3] was 25.2 µM and the IC50 [4] was 17.4 µM. The CC50 (SK-OV-3) was 23.8 µM, the IC50 [5] was 92.8 µM and the CC50 (HT-29) was 20.7 µM.
With `Cc1c(C)c2c(c(C)c1O)CCC(C)(C(=O)O)O2` (stereo not given) [TROLOX] the IC50 [3] was 48.2 µM, the IC50 [4] was 10.6 µM and the IC50 [5] was 33.6 µM.
